Reference: ChEMBL document CHEMBL3886762, “Substituted pyridizinone derivatives as PDE10 inhibitors” (2016)

Each compound was assayed against cAMP and cAMP-inhibited cGMP 3',5'-cyclic phosphodiesterase 10A (Homo sapiens, UniProt Q9Y233) (assay: Fluorescence Polarization Assay: The fluorescence polarization assay for cyclic nucleotide phosphodiesterases was performed using an IMAP® FP kit supplied by Molecular Devices, Sunnyvale, Calif. (product #R8139). IMAP® technology has been applied previously to phosphodiesterase assays (Huang, W., et al., J. Biomol Screen, 2002, 7: 215).).
cAMP and cAMP-inhibited cGMP 3',5'-cyclic phosphodiesterase 10A, sequence (Q9Y233 whole entry): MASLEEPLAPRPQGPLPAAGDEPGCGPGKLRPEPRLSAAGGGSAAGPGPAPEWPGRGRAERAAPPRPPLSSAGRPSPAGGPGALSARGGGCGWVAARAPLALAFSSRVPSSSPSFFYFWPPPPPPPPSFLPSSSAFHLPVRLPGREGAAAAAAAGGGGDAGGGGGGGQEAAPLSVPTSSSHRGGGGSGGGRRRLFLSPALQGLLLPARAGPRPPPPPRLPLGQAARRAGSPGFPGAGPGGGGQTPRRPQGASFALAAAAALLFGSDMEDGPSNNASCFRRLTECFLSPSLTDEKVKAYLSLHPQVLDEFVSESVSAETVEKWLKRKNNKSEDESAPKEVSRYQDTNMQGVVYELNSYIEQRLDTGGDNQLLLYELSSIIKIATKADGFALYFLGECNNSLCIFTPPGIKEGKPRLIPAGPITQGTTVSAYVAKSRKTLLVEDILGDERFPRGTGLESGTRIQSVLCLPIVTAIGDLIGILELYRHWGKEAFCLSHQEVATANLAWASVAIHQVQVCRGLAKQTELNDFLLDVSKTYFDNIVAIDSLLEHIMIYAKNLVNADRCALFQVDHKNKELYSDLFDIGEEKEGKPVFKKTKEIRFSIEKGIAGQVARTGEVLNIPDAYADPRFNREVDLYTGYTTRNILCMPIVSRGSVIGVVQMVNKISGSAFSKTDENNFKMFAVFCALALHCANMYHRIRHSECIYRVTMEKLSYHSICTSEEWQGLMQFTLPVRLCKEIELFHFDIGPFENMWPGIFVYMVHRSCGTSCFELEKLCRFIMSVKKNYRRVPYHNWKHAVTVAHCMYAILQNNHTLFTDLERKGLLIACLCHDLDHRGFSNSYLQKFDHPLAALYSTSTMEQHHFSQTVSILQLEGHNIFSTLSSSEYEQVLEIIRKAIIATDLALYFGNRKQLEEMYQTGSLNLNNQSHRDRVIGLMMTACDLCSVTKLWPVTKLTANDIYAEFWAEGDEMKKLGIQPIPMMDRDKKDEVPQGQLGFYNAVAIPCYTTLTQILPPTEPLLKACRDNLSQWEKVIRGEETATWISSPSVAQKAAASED

Ki [pM]	SMILES
2	Cc1nnc(CNc2cc(OC[C@H]3C[C@@H]3c3ccc4c(n3)CCC4)nn(C)c2=O)s1
1	Cc1nnc(CNc2cc(OC[C@H]3C[C@@H]3c3ccc4ccccc4n3)nn(C)c2=O)s1
905	Cc1nnc(CNc2cc(OC[C@H]3C[C@@H]3c3nn(C)c4ccccc34)nn(C)c2=O)s1

Second part, the compound before the results:

SMILES	Ki [pM]
Cc1nnc(CNc2cc(OC[C@H]3C[C@@H]3c3ccn(C)n3)nn(C)c2=O)s1	100
Cc1ccc(CNc2cc(OC[C@H]3C[C@@H]3c3ccn(C)n3)nn(C)c2=O)nc1	473
COc1ccc([C@H]2C[C@@H]2COc2cc(NCc3cnn(C(F)F)c3)c(=O)n(C)n2)nc1	144
